From US9012397B2 (priority 2011, dated 2015)
Read-outs that look alike come from different tables or passages of the source.

Assays:
Format in all cases: in vivo, human
[1] = tested on: skin infection; conditions: person two, wrist infection, allergic reaction to watch band; 50 μg/gr cream several times a day
Description: (§1) The method of the invention has been carried out with respect to a number of skin disorders. The patients were treated with one of two peptides, each at a concentration of 50 μg/gr cream (unless otherwise indicated):
(§2) The cream was manufactured by Amiga LTD, Israel, and contains the following components:
1. person two suffered from an infection on the wrist of the left hand, apparently an allergic reaction to a watch band. Large spots appeared around the wrist accompanied by redness.
2. person three suffered from an infection on the wrist of the left hand, apparently an allergic reaction to a watch band. Large spots appeared around the wrist accompanied by redness and itching.
3. 2 cases of infected skin wounds.

[2] = tested on: bee stings
Description: as §1, §2
3. A person was stung by a bee.
4. person four was stung by bees on both hands.
5. person three was stung by bees on both hands.

[3] = tested on: Herpes simplex
Description: as §1, §2
5. A person suffered for many years from Herpes simplex on the neck, with no relief from commercial remedies. ZEP3 was applied topically once a day to the lesions. • Results: relief in itching and skin rash within 10-20 min.
6. person two was diagnosed with Herpes simplex.
7. person one was diagnosed with Herpes simplex.
8. person four suffered from Herpes simplex from childhood.
9. A person suffered from Herpes simplex lesions on the lips and face. […] 1-2 applications cause the lesions to disappear.
10. A person suffered from Herpes simplex on the lips, mainly when under pressure. […] The blisters disappeared after 24 hours.
11. A person suffered from Herpes simplex on the lips. ZEP3 (500 μg/gr cream) was topically applied several times during the day on the wound. • Results: the person felt relief after several minutes. The itching and redness lessened immediately and the wound disappeared after 36 hours.
12. 7 subjects suffering from Herpes simplex were treated with ZEP3.
13. A person suffered from Herpes simplex lesions on the lips.
14. A person has a festering Herpes simplex lesion. Generally, 10 days are required for recuperation.
15. A person suffered intermittingly from Herpes simplex on the lips, with blisters.

[4] = tested on: rash
Description: as §1, §2
1. A rash appeared on the wrist of person two, apparently as an allergic response to a watch band. Large red spots appeared around the wrist.
2. A rash appeared in the underarm area of a person, apparently due to sweat and rubbing of the bra strap. […] F. Psoriasis

[5] = tested on: itching; conditions: person
Description: as §1, §2
1. A person suffered from a strong itching sensation on the skin all over the body for no apparent reason.
2. A person suffered from a red rash and itching sensation on their breast. ZEP4 (500 μg/gr cream) was applied twice in a period of 2 hours. • Results: relief from itching within 10 minutes.
3. A person suffered from a strong itching sensation in the lower limbs which sometimes spread to the abdomen and back. […] I. Skin Infection

[6] = tested on: burns
Description: as §1, §2
1. A person was lightly burned on the back of the hand which touched a very hot object. ZEP4 was immediately applied to the burn site. • Results: the burn mark disappeared within 1 hour. No additional treatments were necessary.
2. A person was severely burned by boiling water on the palm of the hand. […] At the end of 2 weeks there was no sign of the burn, nor thereafter.
3. person two was lightly burned on their finger from boiling oil. […] No further treatments were necessary.
5. A person was burnt on their hand from an oven. […] The burn took on a light brown color.
6. 4 light burn cases, three from touching a hot surface and one from a chemical substance in a laboratory, were treated with ZEP3.
8. person three with irritated skin on the hand due to the rubbing of a watch band. The irritated skin came into contact with a chemical substance (used as a disinfectant). A severe redness developed similar to a burn, and a strong itching feeing. […] D. Oral Cavity

[7] = tested on: psoriasis; conditions: person
Description: as §1, §2
1. A person suffered from intermittent psoriasis on their head over many years. […] The patient believes that the frequency of the outbreaks has been reduced.
2. A person suffered from psoriasis on the hands. […] The patient believes that a 20% improvement has occurred over 2 weeks.
3. A person suffered from psoriasis in the anus.
4. A person suffered from extensive psoriasis at various locations. ZEP3 (500 μg/gr cream) was applied to the sores as needed. • Results: the itching ceased within 12 hours.
5. A person suffered from chronic psoriasis on the elbow.
6. A person suffered from severe psoriasis at various locations. They regularly went for treatments to the Dead Sea in Israel.

[8] = tested on: flea bites
Description: as §1, §2
1. person two was bitten by fleas on various occasions, resulting in an itching sensation. […] The ointment was reapplied after 6 hours.
2. person one who is very sensitive to flea bites was bitten by fleas, resulting in an itching sensation. […] The ointment should be reapplied after 12 hours.

[9] = tested on: Herpes zoster; conditions: person, lesions with skin edema on mid back; 50 μg/gr cream, applied 4-5 times
Description: as §1, §2
1. A person was diagnosed with Herpes zoster (shingles), which appeared as a painful, circumferential rash in the abdominal area. The patient had been on antibiotics, with no improvement.
2. A person was diagnosed with Herpes zoster, which appeared as painful lesions with skin edema on the mid back area, appearing several times a year. […] Decrease in the skin rash and the degree of the sore and swelling and a shortening of the time of recovery (healing).

[10] = tested on: radiation burns
Description: as §1, §2
4. A person with breast cancer received radiation treatment. The person suffered from radiation burns in a large skin area with blisters and open wounds. ZEP4 was applied directly to the wounds over a period of 12 days, 1-2 times per day. • Results: an immediate (˜1 minute) ease in the itching and burning sensation.
7. person two with breast cancer after mastectomy received radiation treatment. The person suffered from severe radiation burns.

[11] = tested on: mosquito bites; conditions: two males and four females, 30-57 years old; (500 μg/gr cream) as needed
Description: as §1, §2
8. males and four females suffered from mosquito bites. […]
9. 3 subjects suffering from mosquito bites were treated with ZEP3.

[12] = person one, 50 μg/gr cream several times
[13] = person two, 50 μg/gr cream several times
[14] = person, lips, 50 μg/gr cream several times a day at onset of pricking sensation
[15] = red rash and itching on breast, 500 μg/gr cream twice in 2 hours
[16] = person, severe boiling water burn on palm, 50 μg/gr cream immediately and every day for 2 weeks
[17] = person, breast cancer radiation burns with blisters and open wounds, 50 μg/gr cream 1-2 times per day for 12 days

In the case of pGLU-ASN-TRP-THR [ZEP4], the clinical outcome [1] is reported as “a decrease in redness and the size of the spots”, the clinical outcome ([2]; person four, both hands stung, 1000 μg/gr cream once to one hand, about 10 minutes after sting) is reported as “the swelling shrunk and the redness decreased to an identical degree on each hand” and the clinical outcome ([2]; person three, both hands stung, 1000 μg/gr cream once to one hand, about 10 minutes after sting) is reported as “the swelling shrunk and the redness decreased to an identical degree on each hand”. For the same substance, the clinical outcome ([2]; person, 50 μg/gr cream, one application 24 hours after the sting) was “immediate reduction in the redness, swelling and pain”, the “clinical outcome as compared to treatment with Zovirax®” value ([3]; person four, 50 μg/gr cream several times) was “Rapid drying of the lesion, shrinking of swelling and swift conclusion of the outbreak” and the clinical outcome [3, 12] was “rapid drying of the lesion, as well as shortened scab formation”. For the same substance, the “time to reduction in the stinging/itching feeling” value [3, 12] was 10 to 20 min, the clinical outcome [3, 13] was “the development of the lesion was stopped, scab formation began and the stinging/itching feeling disappeared” and the “scab formation as compared to treatment with Zovirax®” value [3, 13] was “shortened”. The clinical outcome [3, 14] was “immediate reduction in the pricking sensation”, the “time until blisters disappeared” value [3, 14] was 24 h and the clinical outcome ([3]; person, lips, 200 μg/gr cream at onset of pricking sensation or lesions) was “immediate relief; the disease did not develop further”. For the same substance, the clinical outcome ([4]; person two, wrist rash, allergic response to watch band, 50 μg/gr cream several times a day) was “a reduction in the redness and in the diameter of the spots”, the clinical outcome ([4]; person, underarm rash, 50 μg/gr cream twice a day for three days) was “the redness began to decrease shortly after treatment, and after a few days completely disappeared” and the clinical outcome [5, 15] was “The rash disappeared after several hours”. For the same substance, the “time to relief from itching” value [5, 15] was at most 10 min, the clinical outcome ([5]; strong itching in lower limbs, 500 μg/gr cream as needed) was “immediate relief” and the clinical outcome ([6]; person three, irritated skin on hand contacted a disinfectant, burn-like redness and itching, ZEP4 and ZEP3 each 500 μg/gr cream) was “immediate relief from the redness and itching”. For the same substance, the clinical outcome ([6]; person two, light burn on finger from boiling oil, 50 μg/gr cream applied immediately) was “the swelling went down until it completely disappeared”, the clinical outcome ([6]; person, hand burnt from an oven, 50 μg/gr cream applied immediately) was “the pain and redness immediately subsided” and the “time until burn mark disappeared” value ([6]; person, light burn on back of hand from hot object, 50 μg/gr cream applied immediately) was at most 1 h. The clinical outcome [6, 16] was “blisters began to appear and then shortly disappeared”, the “time until no sign of the burn” value [6, 16] was 2 weeks and the “time until relief is felt” value ([7]; psoriasis in the anus, (500 μg/gr cream) once a day) was 4 days. For the same substance, the clinical outcome ([7]; psoriasis in the anus, (500 μg/gr cream) once a day, stopped several days, repeated for 4 days) was “the psoriasis disappeared”, the clinical outcome ([7]; psoriasis on hands, 500 μg/gr cream once a day) was “feels relief; the skin is pleasant feeling and not itchy” and the “improvement as believed by the patient” value ([7]; psoriasis on hands, 500 μg/gr cream once a day, over 2 weeks) was 20%. For the same substance, the clinical outcome ([7]; severe psoriasis at various locations, 500 μg/gr cream) was “the itching ceased and the normal skin appearance returned”, the clinical outcome ([8]; person one very sensitive to flea bites, 50 μg/gr cream) was “almost immediate cessation of the itching sensation” and the clinical outcome ([8]; person two, 50 μg/gr cream several times to bite location) was “immediate cessation of the itching sensation”. The clinical outcome [9] was “reduced skin edema and an increase in the intervals between attacks. Decrease in the skin rash and the degree of the sore and swelling and a shortening of the time of recovery (healing)”, the clinical outcome ([10]; person two after mastectomy, severe radiation burns, 500 μg/gr cream several times per day) was “felt immediate relief” and the clinical outcome [10, 17] was “The therapeutic effect repeated itself after each treatment”. For the same substance, the “time to ease in the itching and burning sensation” value [10, 17] was about 1 min and the clinical outcome [11] was “an immediate relief from the itching sensation was felt”.
